# Read-outs that look alike come from different tables or passages of the source.
# Key:
# Test in all cases: Biological screening of extracts of induced Actinobacteria, BacTiter-Glo assay
# Assay type in all cases: cell-based
# [1] = tested on: Escherichia coli ATCC 35218; settings: FIG. 4
# [2] = tested on: Candida albicans ATCC 753; settings: FIG. 10
# [3] = tested on: Staphylococcus aureus ATCC 33592
# [4] = tested on: Pseudomonas aeruginosa ATCC 27853
# [5] = chemical inducer 3.3 μg/ml in medium 5294
compound,measurement,setting,value
C[S+](C)[O-] [DMSO],"extracts that showed >50% activity against Escherichia coli ATCC 35218, share by culture condition",[1]; chemical inducer 50 μl/ml in medium 5294,3.6%
same,"extracts that showed >50% activity against Candida albicans ATCC 753, share by culture condition",[2]; chemical inducer 10 μl/ml in medium 5294,3.5%
[Cl-].[Cl-].[Sr+2] [SrCl2],"extracts that showed >50% activity against Staphylococcus aureus ATCC 33592, share by culture condition","[3]; chemical inducer 3.3 μg/ml in medium 5294, FIG. 8",3.5%
same,"extracts that showed >50% activity against Candida albicans ATCC 753, share by culture condition",[2]; chemical inducer 1.6 μg/ml in medium 5294,3.5%
same,"extracts showing >50% activity against Pseudomonas aeruginosa ATCC 27853, share by culture condition","[4]; chemical inducer 3.3 μg/ml in medium 5294, FIG. 6",3.8%
O=[Se]([O-])O.[Na+] [NaHSeO3],"extracts that showed >50% activity against Escherichia coli ATCC 35218, share by culture condition",[1]; [5],3.3%
[Cl][Ni][Cl] [NiCl2],"extracts that showed >50% activity against Candida albicans ATCC 753, share by culture condition",[2]; [5],3.7%
[Cl-].[Cl-].[Co+2] [CoCl2],"extracts that showed >50% activity against Staphylococcus aureus ATCC 33592, share by culture condition",[3],3.6%
same,"extracts showing >50% activity against Pseudomonas aeruginosa ATCC 27853, share by culture condition",[4],3.8%

# Source: patent publication US20150099667A1, “METHODS FOR THE ACTIVATION OF SILENT GENES IN A MICROORGANISM” (priority 2012, published 2015)
